Laboratory results as given in ChEMBL document CHEMBL4613306, “BOPC1 Enantiomers Preparation and HuR Interaction Study. From Molecular Modeling to a Curious DEEP-STD NMR Application” (ACS Med Chem Lett, 2020).
Activity calls are given as the source filed them. No cut-off for these calls is given here.

How the values were obtained:
[1] = molecular target: ELAV-like protein 1 (Homo sapiens) (UniProt Q15717); assay: Binding affinity to HuR (unknown origin) assessed as negative STD factor by measuring interaction of protons 3, 9-10 and 16 with protein at 400 uM in 100% D2O buffer by DEEP-STD NMR analysis
ELAV-like protein 1 (Homo sapiens), sequence (Q15717 whole entry): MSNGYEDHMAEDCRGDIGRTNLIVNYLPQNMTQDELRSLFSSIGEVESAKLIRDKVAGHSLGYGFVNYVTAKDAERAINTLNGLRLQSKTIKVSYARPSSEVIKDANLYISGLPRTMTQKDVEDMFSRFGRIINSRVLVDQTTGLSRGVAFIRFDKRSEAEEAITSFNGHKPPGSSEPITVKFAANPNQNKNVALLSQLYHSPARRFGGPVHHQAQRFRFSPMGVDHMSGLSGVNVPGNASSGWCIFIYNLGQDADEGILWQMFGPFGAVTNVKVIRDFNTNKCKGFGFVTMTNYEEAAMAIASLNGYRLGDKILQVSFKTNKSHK

[2] = molecular target: ELAV-like protein 1 (Homo sapiens) (UniProt Q15717); assay: Binding affinity to HuR (unknown origin) assessed as interaction of ring A and protons 16 with hydrophobic residues and projection of ring B and its methoxy group with polar residues of protein at 400 uM in H2O:D2O (90:10) buffer by DEEP-STD NMR analysis
[3] = molecular target: ELAV-like protein 1 (Homo sapiens) (UniProt Q15717); assay: Binding affinity to HuR (unknown origin) assessed as positive STD factor by measuring interaction of protons of ring B and its methoxy group with protein at 400 uM in 100% D2O buffer by DEEP-STD NMR analysis
[4] = molecular target: ELAV-like protein 1 (Homo sapiens) (UniProt Q15717); assay: Binding affinity to HuR (unknown origin) assessed as interaction of ring A and protons 5 and 3 with apolar residues and projection of protons 16 and 9-10 with polar residues of protein at 400 uM in H2O:D2O (90:10) buffer by DEEP-STD NMR analysis

| Activity [1] | Activity [2] | Activity [3] | Activity [4] | SMILES |
| --- | --- | --- | --- | --- |
| Active | Active | – | – | COc1cc(OC)cc([C@H]2[C@H](C(=O)NCCNCc3ccccc3)CCC(=O)N2CC(C)C)c1 |
| – | – | Active | Active | COc1cc(OC)cc([C@@H]2[C@@H](C(=O)NCCNCc3ccccc3)CCC(=O)N2CC(C)C)c1 |
